Format in all cases: in vivo
In experiment [1] the test system is green peach aphid (Myzus persicae). Nature of the experiment: Test B.2: control of green peach aphid through systemic means, artificial diet under membrane in microtiter plates. As to conditions: 3 days. From the text: For evaluating control of green peach aphid (Myzus persicae) through systemic means the test unit consisted of microtiter plates containing liquid artificial diet under an artificial membrane.
The compounds or mixtures were formulated using a solution containing 75 wt % water and 25 wt % DMSO. Different concentrations of formulated compounds or mixtures were pipetted into the aphid diet, using a custom built pipetter, at two replications. For experimental mixtures in these tests identical volumes of both mixing partners at the desired concentrations respectively, were mixed together.
After application, 5-8 adult aphids were placed on the artificial membrane inside the microtiter plate wells. The aphids were then allowed to suck on the treated aphid diet and incubated at 23±1° C., 50±5% RH for 3 days. Aphid mortality and fecundity was then visually assessed.

The subject of experiment [2] is vetch aphid (Megoura viciae). As to the kind of experiment: Test B.1: control of vetch aphid on broad bean leaf disks in microtiter plates (contact or systemic). As to conditions: 5 days. On the procedure:
For evaluating control of vetch aphid (Megoura viciae) through contact or systemic means the test unit consisted of microtiter plates containing broad bean leaf disks. The compounds or mixtures were formulated using a solution containing 75 wt % water and 25 wt % DMSO. Different concentrations of formulated compounds or mixtures were sprayed onto the leaf disks at 2.5 μl, using a custom built micro atomizer, at two replications.
(§1) For experimental mixtures in these tests identical volumes of both mixing partners at the desired concentrations respectively, were mixed together.
After application, the leaf disks were air-dried and 5-8 adult aphids placed on the leaf disks inside the microtiter plate wells. The aphids were then allowed to suck on the treated leaf disks and incubated at 23±1° C., 50±5% RH (relative humidity) for 5 days. Aphid mortality and fecundity was then visually assessed.

Experiment [3] has as its system boll weevil (Anthonomus grandis). Nature of the experiment: Test B.3: control of boll weevil, insect diet with eggs in microtiter plates. To be noted: 5 days. On the procedure: For evaluating control of boll weevil (Anthonomus grandis) the test unit consisted of well-microtiter plates containing an insect diet and 20-30 A. grandis eggs.
The compounds or mixtures were formulated using a solution containing 75 wt % water and 25 wt % DMSO. Different concentrations of formulated compounds or mixtures were sprayed onto the insect diet at 20 μl, using a custom built micro atomizer, at two replications.
as §1
After application, microtiter plates were incubated at 23±1° C., 50±5% RH for 5 days. Egg and larval mortality was then visually assessed.

Experiment [4] deals with Mediterranean fruitfly (Ceratitis capitata). Nature of the experiment: Test B.4: control of Mediterranean fruitfly, insect diet with eggs in microtiter plates. To be noted: 5 days. On the procedure: For evaluating control of Mediterranean fruitfly (Ceratitis capitata) the test unit consisted of well-microtiter plates containing an insect diet and 50-80 C. capitata eggs. The compounds or mixtures were formulated using a solution containing 75 wt % water and 25 wt % DMSO. Different concentrations of formulated compounds or mixtures were sprayed onto the insect diet at 5 μl, using a custom built micro atomizer, at two replications.
as §1
After application, microtiter plates were incubated at 28±1° C., 80±5% RH for 5 days. Egg and larval mortality was then visually assessed.

The mark [5] stands for this setting: 4 + 0 ppm (compound II + compound I), compound II alone.
Setting [6] is: 0.08 + 0 ppm (compound II + compound I), compound II alone.
The mark [7] stands for this setting: 2 + 0 ppm (compound II + compound I), compound II alone.
Setting [8] is: 0 + 20 ppm (compound II + compound I), compound I alone.
Setting [9] is: 0 + 0.8 ppm (compound II + compound I), compound I alone.
Where [10] appears, read: 200 + 0 ppm (compound II + compound I), compound II alone.
Setting [11] is: 0.4 + 0 ppm (compound II + compound I), compound II alone.

Consider ten compounds from US11930814B2, “Pesticidal mixtures comprising cyanosulfoximine compounds” (BASF SE, priority 2007, dated 2024).

With `CCOC(=O)OC1=C(c2cc(C)ccc2C)C(=O)N[C@]12CC[C@@H](OC)CC2` [Spirotetramat, spirotetramat], the “Average Control %” value in experiment [1] (setting [5]) worked out at 0%; in experiment [2] (100 + 0 ppm (compound II + compound I), compound II alone), 50%.
Consider `CNC(=O)c1cc(Cl)cc(C)c1NC(=O)c1cc(Br)nn1-c1ncccc1Cl` [Rynaxypyr], for which the “Average Control %” value in experiment [1] (setting [6]) stood at 0%.
As to `O=[N+]([O-])NC1=NCCN1Cc1ccc(Cl)nc1` [Imidacloprid, imidacloprid], the “Average Control %” value in experiment [3] (setting [7]) amounted to 25%; in experiment [4] (setting [5]), 0%.
Take `CS(=O)(Cc1ccc(Cl)nc1)=NC#N` (centres unmarked) [Compound C.I.1]: the “Average Control %” value in experiment [3] (setting [8]) came to 0%; in experiment [1] (setting [8]), 50%; in experiment [4] (0 + 4 ppm (compound II + compound I), compound I alone), 0%; in experiment [4] (setting [8]), 0%; in experiment [2] (setting [9]) it was 0%.
Regarding `CN1COCN(Cc2cnc(Cl)s2)/C1=N\[N+](=O)[O-]` [Thiamethoxam, thiamethoxam], the “Average Control %” value in experiment [1] (setting [6]) was 0%.
For the compound `CC(C)(C)c1ccc(CSc2cnn(C(C)(C)C)c(=O)c2Cl)cc1` [Pyridaben, pyridaben], the “Average Control %” value in experiment [4] (setting [10]) and in experiment [2] (setting [10]) was 50% throughout.
On to `CC(c1ccc(Cl)nc1)S(C)(=O)=NC#N` (centres unmarked) [Compound C.I.2], for which the “Average Control %” value in experiment [4] (0 + 10 ppm (compound II + compound I), compound I alone) is listed as 0%; in experiment [4] (setting [8]), 0%; in experiment [2] (setting [9]), 0%.
Take `N#Cc1nn(-c2c(Cl)cc(C(F)(F)F)cc2Cl)c(N)c1[S+]([O-])C(F)(F)F` (centres unmarked) [Fipronil, fipronil]: the “Average Control %” value in experiment [2] (setting [7]) is listed as 25%.
Take `CC1(C)C(C=C(Cl)Cl)C1C(=O)OC(C#N)c1cccc(Oc2ccccc2)c1` (stereo not drawn) [Alphacypermethrin, alpha-cypermethrin]: the “Average Control %” value in experiment [4] (setting [11]) and in experiment [2] (setting [7]) was 0% in each case.
As to `CNC(=O)c1cc(C#N)cc(C)c1NC(=O)c1cc(Br)nn1-c1ncccc1Cl` [Compound II.A^13.1], the “Average Control %” value in experiment [4] (setting [11]) is reported as 0%.
